Source: the supplement of paper PMC13207355

Legend:
Conditions in all cases: exposure time: 72 h
[1] = system: E31 (patient-derived glioblastoma stem cells of proneural subtype); assay: surviving fraction (nuclei count normalised to DMSO); higher = more cells surviving (less toxic)
[2] = system: FT3469 (normal neural stem cell line); assay: as above
[3] = system: E34 (patient-derived glioblastoma stem cells of proneural subtype); assay: as above
[4] = system: E21 (patient-derived glioblastoma stem cells of mesenchymal subtype); assay: as above
[5] = system: E28 (patient-derived glioblastoma stem cells of classical subtype); assay: as above
[6] = system: E57 (patient-derived glioblastoma stem cells of mesenchymal subtype); assay: as above
[7] = system: E13 (patient-derived glioblastoma stem cells of classical subtype); assay: as above
[8] = system: E31; assay: phenotypic distance (Euclidean, principal components) from DMSO controls (arbitrary units); higher = stronger morphological change
[9] = system: FT3469; assay: as above
[10] = system: E34; assay: as above
[11] = system: E21; assay: as above
[12] = system: E28; assay: as above
[13] = system: E57; assay: as above
[14] = system: E13; assay: as above
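For phenotypic distance (Euclidean, principal components) from DMSO controls in this document: cell Painting imaging in 384-well plates, CellProfiler features reduced to at least 20 principal components, Euclidean distance versus same-plate DMSO vehicle wells (0.1% v/v), median over six images per well.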
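For surviving fraction (nuclei count normalised to DMSO) in this document: nuclei counted by high-content imaging of Hoechst-stained cells in laminin-coated 384-well plates, relative to 0.1% DMSO vehicle wells, with staurosporine as cell-death control.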

C[C@@H](O)[C@H]1C(=O)N2C(C(=O)O)=C(S[C@@H]3CN[C@H](C(=O)N(C)C)C3)[C@H](C)[C@H]12 [Meropenem]
Conditions	phenotypic distance	surviving fraction
[1], 4.11523 nM	–	1.13
[1], 12.34567901 nM	–	1.1
[1], 37.037 nM	–	1.15
[1], 111.1111111 nM	–	0.926
[1], 333.333 nM	–	1.17
[1], 1000 nM	–	1.01
[1], 3000 nM	–	1.16
[2], 4.11523 nM	–	1.24
[2], 12.34567901 nM	–	1.17
[2], 37.037 nM	–	1.17
[2], 111.1111111 nM	–	1.1
[2], 333.333 nM	–	1.28
[2], 1000 nM	–	0.993
[2], 3000 nM	–	0.866
[3], 4.11523 nM	–	1.07
[3], 12.34567901 nM	–	1.03
[3], 37.037 nM	–	1.11
[3], 111.1111111 nM	–	1.17
[3], 333.333 nM	–	1.07
[3], 1000 nM	–	0.937
[3], 3000 nM	–	1.02
[4], 4.11523 nM	–	1.15
[4], 12.34567901 nM	–	1.14
[4], 37.037 nM	–	1.07
[4], 111.1111111 nM	–	1.11
[4], 333.333 nM	–	1.02
[4], 1000 nM	–	1.16
[4], 3000 nM	–	1.06
[5], 4.11523 nM	–	1.11
[5], 12.34567901 nM	–	1.17
[5], 37.037 nM	–	1.12
[5], 111.1111111 nM	–	1.08
[5], 333.333 nM	–	1.29
[5], 1000 nM	–	1.23
[5], 3000 nM	–	1.03
[6], 4.11523 nM	–	1
[6], 12.34567901 nM	–	1.01
[6], 37.037 nM	–	1.01
[6], 111.1111111 nM	–	1.03
[6], 333.333 nM	–	1.01
[6], 1000 nM	–	1.06
[6], 3000 nM	–	0.989
[7], 4.11523 nM	–	0.996
[7], 12.34567901 nM	–	1.11
[7], 37.037 nM	–	0.951
[7], 111.1111111 nM	–	1.09
[7], 333.333 nM	–	1.05
[7], 1000 nM	–	1.31
[7], 3000 nM	–	1.17
[8], 4.11523 nM	0.705	–
[8], 12.34567901 nM	0.703	–
[8], 37.037 nM	0.741	–
[8], 111.1111111 nM	0.746	–
[8], 333.333 nM	0.485	–
[8], 1000 nM	0.528	–
[8], 3000 nM	0.487	–
[9], 4.11523 nM	0.799	–
[9], 12.34567901 nM	1.17	–
[9], 37.037 nM	0.764	–
[9], 111.1111111 nM	1.09	–
[9], 333.333 nM	0.633	–
[9], 1000 nM	0.854	–
[9], 3000 nM	0.676	–
[10], 4.11523 nM	0.76	–
[10], 12.34567901 nM	0.538	–
[10], 37.037 nM	0.692	–
[10], 111.1111111 nM	0.922	–
[10], 333.333 nM	0.78	–
[10], 1000 nM	0.612	–
[10], 3000 nM	0.538	–
[11], 4.11523 nM	1.01	–
[11], 12.34567901 nM	1	–
[11], 37.037 nM	0.846	–
[11], 111.1111111 nM	3.57	–
[11], 333.333 nM	0.377	–
[11], 1000 nM	0.695	–
[11], 3000 nM	0.387	–
[12], 4.11523 nM	0.51	–
[12], 12.34567901 nM	0.969	–
[12], 37.037 nM	0.452	–
[12], 111.1111111 nM	0.706	–
[12], 333.333 nM	0.645	–
[12], 1000 nM	0.83	–
[12], 3000 nM	0.601	–
[13], 4.11523 nM	0.603	–
[13], 12.34567901 nM	0.59	–
[13], 37.037 nM	0.529	–
[13], 111.1111111 nM	0.751	–
[13], 333.333 nM	0.536	–
[13], 1000 nM	0.871	–
[13], 3000 nM	0.419	–
[14], 4.11523 nM	0.447	–
[14], 12.34567901 nM	0.391	–
[14], 37.037 nM	0.465	–
[14], 111.1111111 nM	0.343	–
[14], 333.333 nM	0.428	–
[14], 1000 nM	1.47	–
[14], 3000 nM	0.693	–

CO[C@H]1C(=O)[C@]2(C)[C@@H](OC)C[C@H]3OC[C@@]3(OC(C)=O)[C@H]2[C@H](OC(=O)c2ccccc2)[C@]2(O)C[C@H](OC(=O)[C@H](O)[C@@H](NC(=O)OC(C)(C)C)c3ccccc3)C(C)=C1C2(C)C [Cabazitaxel]
Conditions	phenotypic distance	surviving fraction
[1], 4.1 nM	–	0.252
[1], 12.3 nM	–	0.164
[1], 37 nM	–	0.195
[1], 111.1 nM	–	0.192
[1], 333.3 nM	–	0.262
[1], 1000 nM	–	0.218
[1], 3000 nM	–	0.288
[2], 4.1 nM	–	0.374
[2], 12.3 nM	–	0.573
[2], 37 nM	–	0.435
[2], 111.1 nM	–	0.553
[2], 333.3 nM	–	0.535
[2], 1000 nM	–	0.406
[2], 3000 nM	–	0.63
[3], 4.1 nM	–	0.399
[3], 12.3 nM	–	0.365
[3], 37 nM	–	0.434
[3], 111.1 nM	–	0.49
[3], 333.3 nM	–	0.476
[3], 1000 nM	–	0.608
[3], 3000 nM	–	0.531
[4], 4.1 nM	–	0.323
[4], 12.3 nM	–	0.353
[4], 37 nM	–	0.326
[4], 111.1 nM	–	0.325
[4], 333.3 nM	–	0.365
[4], 1000 nM	–	0.413
[4], 3000 nM	–	0.423
[5], 4.1 nM	–	0.367
[5], 12.3 nM	–	0.401
[5], 37 nM	–	0.344
[5], 111.1 nM	–	0.301
[5], 333.3 nM	–	0.412
[5], 1000 nM	–	0.412
[5], 3000 nM	–	0.534
[6], 4.1 nM	–	0.0988
[6], 12.3 nM	–	0.102
[6], 37 nM	–	0.0906
[6], 111.1 nM	–	0.117
[6], 333.3 nM	–	0.125
[6], 1000 nM	–	0.133
[6], 3000 nM	–	0.141
[7], 4.1 nM	–	0.197
[7], 12.3 nM	–	0.226
[7], 37 nM	–	0.203
[7], 111.1 nM	–	0.265
[7], 333.3 nM	–	0.25
[7], 1000 nM	–	0.245
[7], 3000 nM	–	0.32
[8], 4.1 nM	4.63	–
[8], 12.3 nM	5.67	–
[8], 37 nM	4.24	–
[8], 111.1 nM	4.7	–
[8], 333.3 nM	4.56	–
[8], 1000 nM	4.89	–
[8], 3000 nM	3.99	–
[9], 4.1 nM	4.34	–
[9], 12.3 nM	4.07	–
[9], 37 nM	3.92	–
[9], 111.1 nM	4.49	–
[9], 333.3 nM	4.39	–
[9], 1000 nM	5.31	–
[9], 3000 nM	3.95	–
[10], 4.1 nM	4.76	–
[10], 12.3 nM	5.24	–
[10], 37 nM	5.3	–
[10], 111.1 nM	4.8	–
[10], 333.3 nM	5.59	–
[10], 1000 nM	4.91	–
[10], 3000 nM	4.55	–
[11], 4.1 nM	7.35	–
[11], 12.3 nM	7.15	–
[11], 37 nM	6.53	–
[11], 111.1 nM	7.01	–
[11], 333.3 nM	7.6	–
[11], 1000 nM	8.51	–
[11], 3000 nM	7.5	–
[12], 4.1 nM	4.55	–
[12], 12.3 nM	4.4	–
[12], 37 nM	3.8	–
[12], 111.1 nM	4.96	–
[12], 333.3 nM	3.6	–
[12], 1000 nM	4.06	–
[12], 3000 nM	3.99	–
[13], 4.1 nM	6.8	–
[13], 12.3 nM	7.09	–
[13], 37 nM	5.83	–
[13], 111.1 nM	6.72	–
[13], 333.3 nM	6.55	–
[13], 1000 nM	6.56	–
[13], 3000 nM	6.86	–
[14], 4.1 nM	7.08	–
[14], 12.3 nM	7.55	–
[14], 37 nM	7.44	–
[14], 111.1 nM	6.21	–
[14], 333.3 nM	6.97	–
[14], 1000 nM	7.09	–
[14], 3000 nM	6.39	–
